Source: paper PMC11352961, “Peptide dendrimers transfecting CRISPR/Cas9 plasmid DNA: optimization and mechanism” (RSC Chemical Biology, 2024)
Bridge positions count the residues as written; N and C are the ends. Side chains are listed from the residue outwards. Peptide text beside a SMILES is read from it. I, II: the chains in the order shown. * marks the point of attachment. Stearoyl = CCCCCCCCCCCCCCCCCC(=O)*

Experiments:
HEK293 cells = test: Cell viability by PrestoBlue assay after transfection, HEK cells; assay type: cell-based; details: 4 h
HeLa cells = test: Cell viability by PrestoBlue assay after transfection, HeLa cells; assay type: cell-based; details: 4 h

| SMILES | % viability HEK cells (HEK293 cells) | % viability HeLa cells (HeLa cells) |
| --- | --- | --- |
| CC(C)C[C@H](NC(=O)[C@H](CCCCN)NC(=O)[C@H](CCCCNC(=O)[C@H](CC(C)C)NC(=O)[C@H](CCCCN)NC(=O)[C@H](CCCCNC(=O)[C@H](CC(C)C)NC(=O)[C@@H](N)CCCCN)NC(=O)[C@H](CC(C)C)NC(=O)[C@@H](N)CCCCN)NC(=O)[C@H](CC(C)C)NC(=O)[C@H](CCCCN)NC(=O)[C@H](CCCCNC(=O)[C@H](CC(C)C)NC(=O)[C@@H](N)CCCCN)NC(=O)[C@H](CC(C)C)NC(=O)[C@@H](N)CCCCN)C(=O)NCCCC[C@H](NC(=O)[C@H](CC(C)C)NC(=O)[C@H](CCCCN)NC(=O)[C@H](CCCCNC(=O)[C@H](CC(C)C)NC(=O)[C@H](CCCCN)NC(=O)[C@H](CCCCNC(=O)[C@H](CC(C)C)NC(=O)[C@@H](N)CCCCN)NC(=O)[C@H](CC(C)C)NC(=O)[C@@H](N)CCCCN)NC(=O)[C@H](CC(C)C)NC(=O)[C@H](CCCCN)NC(=O)[C@H](CCCCNC(=O)[C@H](CC(C)C)NC(=O)[C@@H](N)CCCCN)NC(=O)[C@H](CC(C)C)NC(=O)[C@@H](N)CCCCN)C(=O)NCC(=O)N[C@@H](CO)C(=O)N[C@@H](CS)C(N)=O [G123KL, reference compound] (I: H-KLK([Leu-Lys])KLKKLKGSC-NH2 / II: H-KLK([Leu-Lys])KLKKL / III: H-KLK([Leu-Lys])KL / IV: H-KLK([Leu-Lys])KL; amide I:6-IV:C, I:9-II:C, II:6-III:C) | 52 ± 9% | – |
| CCCCCCCCCCCCCCCCCC(=O)NCCCC[C@H](NC(=O)[C@H](CCCCNC(=O)CCCCCCCCCCCCCCCCC)NC(=O)[C@H](CCCCNC(=O)[C@H](CC(C)C)NC(=O)[C@H](CCCCN)NC(=O)[C@H](CCCCNC(=O)[C@H](CC(C)C)NC(=O)[C@H](CCCCN)NC(=O)[C@H](CCCCNC(=O)[C@H](CC(C)C)NC(=O)[C@@H](N)CCCCN)NC(=O)[C@H](CC(C)C)NC(=O)[C@@H](N)CCCCN)NC(=O)[C@H](CC(C)C)NC(=O)[C@H](CCCCN)NC(=O)[C@H](CCCCNC(=O)[C@H](CC(C)C)NC(=O)[C@@H](N)CCCCN)NC(=O)[C@H](CC(C)C)NC(=O)[C@@H](N)CCCCN)NC(=O)[C@H](CC(C)C)NC(=O)[C@H](CCCCN)NC(=O)[C@H](CCCCNC(=O)[C@H](CC(C)C)NC(=O)[C@H](CCCCN)NC(=O)[C@H](CCCCNC(=O)[C@H](CC(C)C)NC(=O)[C@@H](N)CCCCN)NC(=O)[C@H](CC(C)C)NC(=O)[C@@H](N)CCCCN)NC(=O)[C@H](CC(C)C)NC(=O)[C@H](CCCCN)NC(=O)[C@H](CCCCNC(=O)[C@H](CC(C)C)NC(=O)[C@@H](N)CCCCN)NC(=O)[C@H](CC(C)C)NC(=O)[C@@H](N)CCCCN)C(N)=O [Z2] (I: H-KLK([Leu-Lys])KLKKLKK(Stearoyl)K(Stearoyl)-NH2 / II: H-KLK([Leu-Lys])KLKKL / III: H-KLK([Leu-Lys])KL / IV: H-KLK([Leu-Lys])KL; amide I:6-IV:C, I:9-II:C, II:6-III:C) | 79 ± 11% | 47 ± 3% |
